Measured values from patent US5247079A, “7-cyclopropyl-imidazodiazepines” (Roussel Uclaf, priority 1990, dated 1993).

Legend:
benzodiazepine receptors [1] = test: Affinity for benzodiazepine receptors, displacement of ^3 H-labelled flunitrazepam in membranes from the rear portion of the brain in rats (Test 1); conditions: 0.6×10^-9 mol of ^3 H-labelled flunitrazepam; membranes from the rear portion of rat brain; read-out: Test 1: concentration which inhibited 50% of the specific binding of ^3 H-labelled flunitrazepam (IC50)
Procedure: The affinity of the active ingredients for the benzodiazepine receptors was measured using a radioactively labelled (^3 H) compound flunitrazepam,and a modified version of the method of Squires and Braestrup (Nature, 1977, Vol. 266, p. 732). The values given in Table 2 below are the concentration (mol×10^-9) of the compound under test which inhibited 50% of the specific binding of 0.6×10^-9 mol of ^3 H-labelled flunitrazepam in preparations of membranes from the rear portion of the brain in rats (IC50 values).

benzodiazepine receptors [2] = test: in vivo binding to benzodiazepine receptors, Goeders et al (Test 2); conditions: IP
Procedure: Measuring of in vivo binding to benzodiazepine receptors was carried out according to the method described by Goeders et al, Life Sciences (1985), Vol. 37, p. 345.

Compound | IC50 (benzodiazepine receptors [1]) [nM] | Test 2 ED50 (benzodiazepine receptors [2]) [mg/kg]
CN1Cc2c(C(=O)C3CC3)ncn2-c2ccncc2C1=O [Example 3, 5,6-dihydro-5-methyl-6-oxo-4H-imidazo [1,5-a]-pyrido-[3,4-f][1,4]-diazepin-3-yl cyclopropylmethanone] | 105 | 0.13
CN1Cc2c(C(=O)C3CC3)ncn2-c2ccnc(C3CC3)c2C1=O [Example 2, 7-cyclopropyl-5,6-dihydro-5-methyl-6-oxo-4H-imidazo-[1,5-a]-pyrido [3,4-f]diazepin-3-yl cyclopropyl methanone] | 26 | 0.08
CN1Cc2c(C(=O)C3CC3)ncn2-c2cccc(C3CC3)c2C1=O [Example 1, 7-cyclopropyl-5,6-dihydro-5-methyl-6-oxo-4H-imidazo-[1,5-a][1,4]-benzodiazepin-3-yl cyclopropyl methanone] | 36 | 0.15
